Measurements as given in US10017477B2, “Janus kinase inhibitors and uses thereof” (Dana-Farber Cancer Institute, Inc., priority 2014, dated 2018).
Values joined by “and” are separate entries in the source; they are usually repeats but may differ in a detail not shown here. Equal values may be shown once. Read-outs that look alike come from different tables or passages of the source.

Assays:
[1] = test system: NKL (a Natural Killer Cell Lymphoma (NKCL) cell line); experiment: CellTiter-Glo cell proliferation, NKL cancer cell line; type: cell-based
Method: (§1) CellTiter-Glo® Luminescent cell viability assay (Promega) was used to assess cell survival following treatment with the compounds described herein. Cells were seeded into 384 well plates with the EL406 Combination Washer Dispenser (BioTek Instruments, Inc.), and the compounds were injected into the cells culture media with the JANUS Automated Workstation (PerkinElmer Inc.). Cells were treated with a series diluted inhibitors (20 to 0.04 μM) for 72 hours at 37° C. Luminescent measurement is performed using the 2104 Envision® Multilabel Reader (PerkinElmer Inc.). The cell lines employed include Ba/F3 (a murine interleukin-3 dependent pro-B cell line), NKL (a Natural Killer Cell Lymphoma (NKCL) cell line), CMK (an Acute Megakaryoblastic Leukemia (AMKL) cell line).

Ba/F3 JAK3 = biological target: T1, Ba/F3 JAK3 (Homo sapiens, UniProt P52333); experiment: CellTiter-Glo cell proliferation, Ba/F3 JAK3; type: cell-based, murine; details: 72 hours, read-out: Ba/F3 IC50 JAK3
T1 construct: candidate: TEL (ETV6) N-terminal oligomerisation domain
T1 sequence (P52333 1-1124): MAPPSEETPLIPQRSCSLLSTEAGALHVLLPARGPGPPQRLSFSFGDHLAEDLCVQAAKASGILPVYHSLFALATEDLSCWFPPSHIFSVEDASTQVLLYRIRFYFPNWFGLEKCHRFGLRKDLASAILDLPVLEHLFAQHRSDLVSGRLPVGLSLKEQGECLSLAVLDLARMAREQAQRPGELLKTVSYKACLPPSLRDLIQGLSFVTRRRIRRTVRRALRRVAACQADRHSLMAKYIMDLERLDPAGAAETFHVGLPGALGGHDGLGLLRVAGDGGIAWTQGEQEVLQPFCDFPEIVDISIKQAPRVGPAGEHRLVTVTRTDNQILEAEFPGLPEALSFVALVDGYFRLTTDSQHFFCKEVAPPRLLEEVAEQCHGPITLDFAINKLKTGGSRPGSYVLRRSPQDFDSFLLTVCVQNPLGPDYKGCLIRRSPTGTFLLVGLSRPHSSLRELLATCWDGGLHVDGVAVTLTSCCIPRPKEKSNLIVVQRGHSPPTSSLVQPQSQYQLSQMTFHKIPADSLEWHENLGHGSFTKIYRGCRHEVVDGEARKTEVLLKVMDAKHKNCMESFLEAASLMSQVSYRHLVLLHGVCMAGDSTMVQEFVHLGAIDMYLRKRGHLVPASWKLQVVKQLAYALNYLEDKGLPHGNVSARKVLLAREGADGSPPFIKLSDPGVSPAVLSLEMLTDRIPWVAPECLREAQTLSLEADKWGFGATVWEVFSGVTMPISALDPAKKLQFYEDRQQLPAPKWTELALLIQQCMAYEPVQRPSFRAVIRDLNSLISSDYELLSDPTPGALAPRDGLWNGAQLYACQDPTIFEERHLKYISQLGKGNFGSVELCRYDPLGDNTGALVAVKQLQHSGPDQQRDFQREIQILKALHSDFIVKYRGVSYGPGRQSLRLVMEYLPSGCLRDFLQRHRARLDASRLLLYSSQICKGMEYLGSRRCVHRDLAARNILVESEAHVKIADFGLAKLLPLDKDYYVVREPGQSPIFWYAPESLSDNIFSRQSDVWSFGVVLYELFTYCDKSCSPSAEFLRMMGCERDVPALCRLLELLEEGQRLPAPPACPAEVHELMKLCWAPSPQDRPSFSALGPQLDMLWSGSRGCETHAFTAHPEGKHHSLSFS

[2] = Pharmacokinetics in mouse; type: in vivo; details: blood
Aqueous solubility = type: physicochemical; details: aqueous medium; at 25° C.
[3] = test system: IL-4 signaling (JAK3 dependent); experiment: Profiling on primary immune cells, IL-4 signaling; type: cell-based
[4] = test system: EGFR (T790M) dependent Ba/F3; experiment: Proliferation of EGFR (T790M) dependent Ba/F3; type: cell-based, murine; details: Mus musculus, BaF3; at 200 nM
Method: as §1

[5] = test system: CMK (an Acute Megakaryoblastic Leukemia (AMKL) cell line); experiment: CellTiter-Glo cell proliferation, CMK cancer cell line; type: cell-based
Method: as §1

JAK3 = biological target: T2, JAK3 (Homo sapiens, UniProt P52333); experiment: INVITROGEN Select Screening assay, enzymatic IC50, JAK3; type: biochemical
T2 construct: purchased INVITROGEN (Select Screening assay service)
T2 sequence (P52333 1-1124): T1 sequence (P52333 1-1124)

AURKB = biological target: T3, AURKB (Homo sapiens, UniProt Q96GD4); experiment: INVITROGEN Select Screening assay, enzymatic IC50, AURKB; type: biochemical
T3 construct: purchased INVITROGEN (Select Screening assay service)
Source text: (§2) The in vitro activity of the compounds described herein in inhibiting JAK3 and other kinases were obtained using an INVITROGEN Select Screening assay as known in the art.

AURKA = biological target: T4, AURKA (Homo sapiens, UniProt O14965); experiment: INVITROGEN Select Screening assay, enzymatic IC50, AURKA; type: biochemical
T4 construct: purchased INVITROGEN (Select Screening assay service)
T4 sequence (O14965 1-403): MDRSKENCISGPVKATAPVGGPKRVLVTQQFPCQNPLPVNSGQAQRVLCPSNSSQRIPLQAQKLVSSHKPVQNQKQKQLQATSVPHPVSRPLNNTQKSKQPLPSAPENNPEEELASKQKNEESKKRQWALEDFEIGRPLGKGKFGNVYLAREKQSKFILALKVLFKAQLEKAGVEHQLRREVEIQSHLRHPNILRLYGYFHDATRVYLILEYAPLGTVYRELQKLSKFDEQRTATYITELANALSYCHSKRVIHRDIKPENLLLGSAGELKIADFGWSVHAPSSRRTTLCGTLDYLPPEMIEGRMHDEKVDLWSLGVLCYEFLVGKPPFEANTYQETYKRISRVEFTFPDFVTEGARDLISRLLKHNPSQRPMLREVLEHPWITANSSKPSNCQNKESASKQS
Source text: as §2

Ba/F3 ABL = biological target: T5, Ba/F3 ABL (Homo sapiens, UniProt P00519); experiment: CellTiter-Glo cell proliferation, Ba/F3 ABL; type: cell-based, murine; details: 72 hours; read-out: Ba/F3 IC50 ABL
T5 construct: candidates: BCR or TEL (ETV6)
Method: as §1

Ba/F3 TYK2 = biological target: T6, Ba/F3 TYK2 (Homo sapiens, UniProt P29597); experiment: CellTiter-Glo cell proliferation, Ba/F3 TYK2; type: cell-based, murine; details: 72 hours; read-out: Ba/F3 IC50 TYK2
T6 construct: The likeliest candidate is TEL (ETV6) N-terminal oligomerisation domain fused to the TYK2 kinase domain; BCR, another partner, or no partner are also possible

Ba/F3 JAK2 = biological target: T7, Ba/F3 JAK2 (Homo sapiens, UniProt O60674); experiment: CellTiter-Glo cell proliferation, Ba/F3 JAK2; type: cell-based, murine; details: 72 hours; read-out: Ba/F3 IC50 JAK2
T7 construct: candidate: TEL (ETV6) N-terminal oligomerisation domain

Ba/F3 JAK1 = biological target: T8, Ba/F3 JAK1 (Homo sapiens, UniProt P23458); experiment: CellTiter-Glo cell proliferation, Ba/F3 JAK1; type: cell-based, murine; details: 72 hours; read-out: Ba/F3 IC50 JAK1
T8 construct: candidate: TEL (ETV6) N-terminal oligomerisation domain
T8 sequence (P23458 whole entry, change not shown, the tested form may be a part): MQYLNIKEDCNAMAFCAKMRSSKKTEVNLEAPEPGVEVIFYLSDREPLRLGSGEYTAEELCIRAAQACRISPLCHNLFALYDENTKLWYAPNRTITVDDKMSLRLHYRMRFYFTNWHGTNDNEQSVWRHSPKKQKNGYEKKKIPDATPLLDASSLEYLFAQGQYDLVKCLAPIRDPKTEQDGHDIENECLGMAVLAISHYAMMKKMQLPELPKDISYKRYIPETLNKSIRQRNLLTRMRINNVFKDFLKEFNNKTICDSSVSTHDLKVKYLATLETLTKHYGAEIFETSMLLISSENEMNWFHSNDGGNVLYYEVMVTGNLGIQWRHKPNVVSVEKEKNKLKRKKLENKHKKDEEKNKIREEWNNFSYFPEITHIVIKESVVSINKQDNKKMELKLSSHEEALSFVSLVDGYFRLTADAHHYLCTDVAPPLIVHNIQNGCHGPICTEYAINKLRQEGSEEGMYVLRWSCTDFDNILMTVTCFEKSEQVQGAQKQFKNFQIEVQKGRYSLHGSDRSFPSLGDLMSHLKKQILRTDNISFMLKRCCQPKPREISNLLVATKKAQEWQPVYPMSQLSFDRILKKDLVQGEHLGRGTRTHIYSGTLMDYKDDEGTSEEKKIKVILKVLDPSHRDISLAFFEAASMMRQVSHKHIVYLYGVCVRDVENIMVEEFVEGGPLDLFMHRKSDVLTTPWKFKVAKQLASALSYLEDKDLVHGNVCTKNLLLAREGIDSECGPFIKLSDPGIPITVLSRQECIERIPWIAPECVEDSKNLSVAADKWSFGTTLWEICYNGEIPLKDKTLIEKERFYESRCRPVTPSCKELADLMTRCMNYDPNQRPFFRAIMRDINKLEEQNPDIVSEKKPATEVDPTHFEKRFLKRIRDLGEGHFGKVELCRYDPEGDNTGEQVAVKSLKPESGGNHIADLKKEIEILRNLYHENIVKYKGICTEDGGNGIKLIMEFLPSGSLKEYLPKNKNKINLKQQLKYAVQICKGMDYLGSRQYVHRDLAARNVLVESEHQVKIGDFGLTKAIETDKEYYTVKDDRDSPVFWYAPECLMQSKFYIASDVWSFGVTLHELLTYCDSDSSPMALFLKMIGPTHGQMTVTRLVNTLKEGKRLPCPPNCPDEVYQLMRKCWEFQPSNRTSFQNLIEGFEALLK

T5 sequence (P00519 whole entry, change not shown): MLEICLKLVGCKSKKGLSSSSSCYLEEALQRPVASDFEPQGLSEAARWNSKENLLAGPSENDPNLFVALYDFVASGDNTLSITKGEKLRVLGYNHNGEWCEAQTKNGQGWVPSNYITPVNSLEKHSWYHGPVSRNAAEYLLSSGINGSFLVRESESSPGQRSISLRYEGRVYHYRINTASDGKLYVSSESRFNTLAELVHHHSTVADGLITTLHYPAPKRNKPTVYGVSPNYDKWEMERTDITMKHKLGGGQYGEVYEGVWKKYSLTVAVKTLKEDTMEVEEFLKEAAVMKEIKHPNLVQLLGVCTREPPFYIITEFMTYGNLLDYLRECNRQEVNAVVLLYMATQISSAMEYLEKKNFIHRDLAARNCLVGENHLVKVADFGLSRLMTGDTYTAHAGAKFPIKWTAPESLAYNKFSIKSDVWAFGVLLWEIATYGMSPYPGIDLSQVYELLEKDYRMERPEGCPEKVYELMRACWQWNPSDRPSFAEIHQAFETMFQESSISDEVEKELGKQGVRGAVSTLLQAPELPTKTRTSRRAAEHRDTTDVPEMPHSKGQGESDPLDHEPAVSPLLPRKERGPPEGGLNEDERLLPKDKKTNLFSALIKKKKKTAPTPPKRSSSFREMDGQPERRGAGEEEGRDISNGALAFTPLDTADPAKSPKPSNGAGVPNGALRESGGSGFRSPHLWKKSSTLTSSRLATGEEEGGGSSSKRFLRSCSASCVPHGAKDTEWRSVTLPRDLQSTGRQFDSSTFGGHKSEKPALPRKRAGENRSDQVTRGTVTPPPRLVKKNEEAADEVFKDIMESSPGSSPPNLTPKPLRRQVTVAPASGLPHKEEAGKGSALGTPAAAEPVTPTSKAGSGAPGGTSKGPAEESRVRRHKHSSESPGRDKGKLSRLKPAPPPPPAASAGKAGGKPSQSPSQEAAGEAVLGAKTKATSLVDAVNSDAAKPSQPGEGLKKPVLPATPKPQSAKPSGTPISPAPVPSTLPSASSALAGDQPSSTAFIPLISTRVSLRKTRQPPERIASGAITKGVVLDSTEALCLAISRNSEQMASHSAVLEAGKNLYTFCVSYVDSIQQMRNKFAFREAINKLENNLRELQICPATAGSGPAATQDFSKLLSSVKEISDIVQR
T7 sequence (O60674 whole entry, change not shown, the tested form may be a part): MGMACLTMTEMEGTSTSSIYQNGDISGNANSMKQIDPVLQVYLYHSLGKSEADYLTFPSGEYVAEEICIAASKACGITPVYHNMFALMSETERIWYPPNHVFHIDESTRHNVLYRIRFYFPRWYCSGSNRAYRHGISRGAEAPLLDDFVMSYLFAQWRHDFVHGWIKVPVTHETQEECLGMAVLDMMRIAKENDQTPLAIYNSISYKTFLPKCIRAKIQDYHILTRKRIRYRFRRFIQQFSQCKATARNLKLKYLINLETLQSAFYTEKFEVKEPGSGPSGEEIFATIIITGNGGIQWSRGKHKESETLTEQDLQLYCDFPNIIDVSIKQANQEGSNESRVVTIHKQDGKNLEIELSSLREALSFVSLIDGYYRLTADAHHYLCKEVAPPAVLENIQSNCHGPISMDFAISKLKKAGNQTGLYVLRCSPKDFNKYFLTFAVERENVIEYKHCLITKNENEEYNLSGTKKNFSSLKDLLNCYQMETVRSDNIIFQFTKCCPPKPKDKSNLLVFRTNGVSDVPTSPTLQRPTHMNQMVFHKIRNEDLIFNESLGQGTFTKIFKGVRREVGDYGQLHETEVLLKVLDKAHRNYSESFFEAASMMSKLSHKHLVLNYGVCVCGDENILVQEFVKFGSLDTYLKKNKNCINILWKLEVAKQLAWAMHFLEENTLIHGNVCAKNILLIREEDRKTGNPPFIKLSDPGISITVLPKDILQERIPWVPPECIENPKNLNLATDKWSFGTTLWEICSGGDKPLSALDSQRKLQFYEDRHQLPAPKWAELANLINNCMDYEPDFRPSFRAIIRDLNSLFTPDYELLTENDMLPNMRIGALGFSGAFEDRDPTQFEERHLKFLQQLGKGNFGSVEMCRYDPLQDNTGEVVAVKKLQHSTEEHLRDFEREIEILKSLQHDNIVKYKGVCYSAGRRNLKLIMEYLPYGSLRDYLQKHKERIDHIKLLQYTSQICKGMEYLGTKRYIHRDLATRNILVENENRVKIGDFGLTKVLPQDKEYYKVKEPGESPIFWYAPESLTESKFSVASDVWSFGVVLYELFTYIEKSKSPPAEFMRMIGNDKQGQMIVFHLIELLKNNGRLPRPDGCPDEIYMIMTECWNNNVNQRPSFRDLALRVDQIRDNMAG
T6 sequence (P29597 whole entry, change not shown, the tested form may be a part): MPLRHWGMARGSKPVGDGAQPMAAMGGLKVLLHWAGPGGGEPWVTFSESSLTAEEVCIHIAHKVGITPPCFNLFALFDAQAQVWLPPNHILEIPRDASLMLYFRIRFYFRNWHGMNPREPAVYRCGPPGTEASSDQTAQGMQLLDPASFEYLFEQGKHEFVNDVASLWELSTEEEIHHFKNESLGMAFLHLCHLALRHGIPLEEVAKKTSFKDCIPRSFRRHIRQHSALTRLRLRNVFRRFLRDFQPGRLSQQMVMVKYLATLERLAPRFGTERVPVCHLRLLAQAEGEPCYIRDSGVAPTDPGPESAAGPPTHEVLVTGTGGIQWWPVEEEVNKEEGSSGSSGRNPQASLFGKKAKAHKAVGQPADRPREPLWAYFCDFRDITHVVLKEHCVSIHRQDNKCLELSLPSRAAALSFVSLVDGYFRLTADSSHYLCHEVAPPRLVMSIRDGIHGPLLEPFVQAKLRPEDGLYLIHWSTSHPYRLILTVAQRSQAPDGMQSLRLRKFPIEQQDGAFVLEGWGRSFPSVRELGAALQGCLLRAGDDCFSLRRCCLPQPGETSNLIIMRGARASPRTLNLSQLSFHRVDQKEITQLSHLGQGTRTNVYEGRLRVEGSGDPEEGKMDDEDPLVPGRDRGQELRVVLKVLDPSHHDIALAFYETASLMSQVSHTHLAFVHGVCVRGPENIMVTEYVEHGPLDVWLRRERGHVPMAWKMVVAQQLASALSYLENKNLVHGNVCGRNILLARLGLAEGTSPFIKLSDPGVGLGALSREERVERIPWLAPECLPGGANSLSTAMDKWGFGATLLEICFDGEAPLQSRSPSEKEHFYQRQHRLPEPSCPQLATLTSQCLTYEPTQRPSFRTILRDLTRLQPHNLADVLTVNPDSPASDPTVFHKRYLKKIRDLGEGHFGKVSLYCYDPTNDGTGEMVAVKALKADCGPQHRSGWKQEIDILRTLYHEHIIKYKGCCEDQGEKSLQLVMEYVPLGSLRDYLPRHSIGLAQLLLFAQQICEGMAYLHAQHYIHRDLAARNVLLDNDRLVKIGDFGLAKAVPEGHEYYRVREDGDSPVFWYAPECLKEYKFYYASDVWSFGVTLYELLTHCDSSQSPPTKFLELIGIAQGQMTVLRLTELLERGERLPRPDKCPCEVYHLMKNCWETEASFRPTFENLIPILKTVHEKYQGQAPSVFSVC
T3 sequence (Q96GD4 whole entry): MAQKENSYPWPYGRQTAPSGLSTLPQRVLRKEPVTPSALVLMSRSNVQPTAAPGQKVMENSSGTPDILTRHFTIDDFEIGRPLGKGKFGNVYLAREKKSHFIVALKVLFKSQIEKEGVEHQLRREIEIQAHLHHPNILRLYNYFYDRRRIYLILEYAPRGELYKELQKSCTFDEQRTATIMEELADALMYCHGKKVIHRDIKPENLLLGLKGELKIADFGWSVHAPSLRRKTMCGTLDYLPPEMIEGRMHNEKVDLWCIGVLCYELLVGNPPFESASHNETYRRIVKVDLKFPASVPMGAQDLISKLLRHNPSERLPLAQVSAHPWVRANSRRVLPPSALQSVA

SMILES | GI50 (Ba/F3 JAK3) | IC50 (JAK3) [nM] | GI50 (Ba/F3 ABL) [nM] | GI50 (Ba/F3 TYK2) [nM] | GI50 (Ba/F3 JAK2) [nM] | GI50 (Ba/F3 JAK1) [nM] | further results
C=CC(=O)Nc1cccc(CNc2nc(Nc3ccc(N4CCN(C)CC4)cc3OC)ncc2Cl)c1 [Compound 2, N-(3-(((5-chloro-2-((2-methoxy-4-(4-methylpiperazin-1-yl)phenyl)amino)pyrimidin-4-yl)amino)methyl)phenyl)acrylamide] | 60.4 nM and 62.6 nM | – | – | – | – | – | IC50 ([1]; 72 hours, read-out: Cancer cell lines IC50 NKL): 19.7 nM; EC50 ([1]; IL-2 dependent NKL cell line, read-out: anti-proliferative potency EC50, NKL): 20 nM; GI50 (Ba/F3 JAK3; listed as compound 2): 60 nM; Cmax ([2]; PO dose at 10 mg/kg): 294 ng/mL; Tmax ([2]; PO dose at 10 mg/kg): 2 h; bioavailability ([2]; PO dose at 10 mg/kg): 23%; Vd ([2]; intravenous dose at 1 mg/kg, read-out: Vdss): 1.2 L/kg; solubility (Aqueous solubility): > 250 µM; effect on IL-4 signaling [3]: blocks IL-4 signaling; inhibition at 0.2 µM [4]: > 90%; IC50 ([5]; 72 hours, read-out: Cancer cell lines IC50 CMK): 8280 nM; anti-proliferative potency on AMKL cell line (in words) ([5]; cell line with activating mutation A572V of JAK3): doesn't shown anti-proliferative potency
C=CC(=O)Nc1ccc(CNc2nc(Nc3ccc(N4CCN(C)CC4)cc3OC)ncc2Br)cc1 [Compound 3] | – | 33.2 | – | – | – | – | –
C=CC(=O)Nc1ccc(CNc2nc(Nc3ccc(N4CCN(C)CC4)cc3OC)ncc2C(F)(F)F)cc1 [Compound 4] | – | 57.2 | – | – | – | – | –
CCC(=O)Nc1ccc(CNc2nc(Nc3ccc(N4CCN(C)CC4)cc3OC)ncc2Cl)cc1 [Compound 5] | – | 5420 | – | – | – | – | –
C=CC(=O)Nc1ccc(CNc2nc(Nc3ccc(N4CCOCC4)cc3)ncc2Cl)cc1 [Compound 13] | – | – | – | – | – | – | IC50 (AURKB): 835 nM; IC50 (AURKA): 173 nM
C=CC(=O)Nc1ccc(CNc2nc(Nc3ccc(N4CCOCC4)c(F)c3)ncc2Cl)cc1 [Compound 14] | 30.5 nM | 3.5 | 2520 | 607 | 1870 | 1300 | IC50 (AURKB): 1310 nM; IC50 (AURKA): 279 nM
C=CC(=O)Nc1ccc(CNc2nc(Nc3ccc(N4CCN(C)CC4)cc3)ncc2Cl)cc1 [Compound 15] | 10.6 nM | 0.689 | 158 | 144 | 200 | 172 | –
C=CC(=O)Nc1ccc(CNc2nc(Nc3ccc(N4CCN(C)CC4)c(F)c3)ncc2Cl)cc1 [Compound 16] | 17.8 nM | 2.79 | 453 | 284 | 538 | 379 | –
C=CC(=O)Nc1cccc(CNc2cc(Nc3ccc(N4CCN(C)CC4)cc3OC)ncn2)c1 [Compound 25] | 246 nM | 15.3 | 4550 | 1530 | 2300 | 2880 | –
C=CC(=O)Nc1ccc(CNc2cc(Nc3ccc(N4CCN(C)CC4)cc3)ncn2)cc1 [Compound 32] | – | – | 22400 | – | – | – | –
C=CC(=O)Nc1ccc(CN2C(=O)NCc3cnc(Nc4ccc(N5CCN(C)CC5)cc4)nc32)cc1 [Compound 34] | 576 nM | 1.21 | 29200 | 29500 | 30100 | > 10000 | –
C=CC(=O)Nc1ccc(CN2C(=O)N(C)Cc3cnc(Nc4ccc(N5CCN(C)CC5)cc4)nc32)cc1 [Compound 35] | 880 nM | 30.4 | 8840 | 10100 | 14600 | 87600 | –
C=CC(=O)Nc1cccc(CNc2cc(Nc3cnn(C)c3)ncn2)c1 [Compound 38] | – | – | – | 78000 | – | – | –
C=CC(=O)Nc1cccc(CN2C(=O)N(C)Cc3cnc(Nc4cnn(C)c4)nc32)c1 [Compound 43] | 400 nM | 20.9 | > 50000 | 50100 | > 50000 | 14000 | –
C=CC(=O)Nc1cccc(CNc2nc(Nc3cc(Cl)c(C4CCOCC4)c(Cl)c3)ncc2Cl)c1 [Compound 45] | – | 100 | – | – | – | – | –
C=CC(=O)Nc1cccc(CN2CCc3cnc(Nc4cnn(C)c4)nc32)c1 [Compound 48] | > 50000 nM | 8040 | > 50000 | 8850 | 18100 | 56400 | –
C=CC(=O)Nc1cccc(CNc2nc(Nc3cc(F)c(C4CCOCC4)c(F)c3)ncc2Cl)c1 [Compound 50] | 100 nM | 20.5 | > 50000 | > 50000 | > 50000 | > 50000 | –
C=CC(=O)Nc1cccc(CNc2nc(Nc3cc(OC)c(N4CCN(C)CC4)cc3OC)ncc2Cl)c1 [Compound 57] | – | 170 | – | – | – | – | –
C=CC(=O)Nc1cccc(CNc2nc(Nc3ccc(N4CCN(C)CC4)cc3OC)ncc2C2CC2)c1 [Compound 91] | – | 220 | – | – | – | – | –
C=CC(=O)Nc1cccc(CNc2nc(Nc3cnn(CCOCCOCCOCCNC(=O)CCCC[C@@H]4SC[C@@H]5NC(=O)N[C@@H]54)c3)ncc2Cl)c1 [Compound 93] | – | – | > 50000 | 15400 | > 50000 | 18700 | –
